From PubChem BioAssay AID248 (DTP/NCI, 2004)
Values joined by “and” are separate entries in the source; they are usually repeats but may differ in a detail not shown here. Identical values can stand only once. Inconclusive results and toxic doses are left out. No stated cut-off is given here; in the data, active means T/C of 150% or more; inactive means T/C below 125%.

Test system: L1210 leukemia ip in BDF1 mice, survival T/C
Assay: NCI In Vivo Anticancer Drug Screen. Data for tumor model L1210 Leukemia (intraperitoneal) in B6D2F1 (BDF1) mice
Conditions: higher = longer survival
Outline: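 Antitumor effect is assessed in tumor-bearing animals. Survival in the compound arm is compared with a vehicle-dosed control arm and expressed as their quotient.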

Measured: T/C

N=[N+]=CC(=O)OCC(N)C(=O)O (centres undefined)
inactive: endpoint: mean survival time, dose: 0.06 mg/kg/injection, schedule: Q#A X Z (ip), vehicle: saline 117 % of control | endpoint: mean survival time, dose: 0.43 mg/kg/injection, schedule: Q01DX009 (ip), vehicle: saline 111 % of control | endpoint: mean survival time, dose: 0.5 mg/kg/injection, schedule: Q01DX010 (ip), vehicle: saline 119 % of control | endpoint: mean survival time, dose: 0.5 mg/kg/injection, schedule: Q01DX Z (ip), vehicle: saline 117 % of control and 118 % of control | endpoint: mean survival time, dose: 0.85 mg/kg/injection, schedule: Q01DX009 (ip), vehicle: saline 105 % of control and 111 % of control | endpoint: mean survival time, dose: 1.0 mg/kg/injection, schedule: Q01DX Z (ip), vehicle: saline 115 % of control | endpoint: mean survival time, dose: 1.3 mg/kg/injection, schedule: Q04DX002 (ip), vehicle: saline 98 % of control and 112 % of control | endpoint: mean survival time, dose: 1.7 mg/kg/injection, schedule: Q01DX009 (ip), vehicle: saline 115 % of control | endpoint: mean survival time, dose: 1.8 mg/kg/injection, schedule: Q01DX Z (ip), vehicle: carboxymethylcellulose (CMC) 108 % of control and 120 % of control | endpoint: mean survival time, dose: 2.0 mg/kg/injection, schedule: Q01DX005 (ip), vehicle: saline 114 % of control | endpoint: mean survival time, dose: 2.0 mg/kg/injection, schedule: Q01DX Z (oral), vehicle: saline 110 % of control | endpoint: mean survival time, dose: 2.0 mg/kg/injection, schedule: Q01DX Z (sc), vehicle: saline 118 % of control | endpoint: mean survival time, dose: 2.5 mg/kg/injection, schedule: Q04DX002 (ip), vehicle: saline 106 % of control and 110 % of control | endpoint: mean survival time, dose: 3.5 mg/kg/injection, schedule: Q07DX003 (ip), vehicle: saline 115 % of control | endpoint: mean survival time, dose: 4.0 mg/kg/injection, schedule: Q01DX009 (ip), vehicle: saline 121 % of control | endpoint: mean survival time, dose: 4.0 mg/kg/injection, schedule: Q01DX Z (im), vehicle: saline 118 % of control | endpoint: mean survival time, dose: 4.0 mg/kg/injection, schedule: Q01DX Z (sc), vehicle: saline 119 % of control | endpoint: mean survival time, dose: 4.0 mg/kg/injection, schedule: Q03HX024 (oral), vehicle: saline 117 % of control | endpoint: mean survival time, dose: 4.0 mg/kg/injection, schedule: Q## X003 (ip), vehicle: saline 106 % of control | endpoint: mean survival time, dose: 5.0 mg/kg/injection, schedule: Q04DX002 (ip), vehicle: saline 117 % of control and 121 % of control | endpoint: mean survival time, dose: 7.0 mg/kg/injection, schedule: Q07DX003 (ip), vehicle: saline 117 % of control | endpoint: mean survival time, dose: 8.0 mg/kg/injection, schedule: Q01DX009 (ip), vehicle: saline 121 % of control | endpoint: mean survival time, dose: 8.0 mg/kg/injection, schedule: Q01DX009 (oral), vehicle: saline 105 % of control and 107 % of control | endpoint: mean survival time, dose: 8.0 mg/kg/injection, schedule: Q04DX003 (ip), vehicle: saline 113 % of control | endpoint: mean survival time, dose: 8.0 mg/kg/injection, schedule: Q## X002 (ip), vehicle: saline 102 % of control | endpoint: mean survival time, dose: 8.0 mg/kg/injection, schedule: Q## X003 (ip), vehicle: saline 107 % of control and 113 % of control | endpoint: mean survival time, dose: 8.0 mg/kg/injection, schedule: Q## X003 (oral), vehicle: saline 97 % of control and 101 % of control | endpoint: mean survival time, dose: 8.0 mg/kg/injection, schedule: Q## X024 (oral), vehicle: saline 106 % of control | endpoint: mean survival time, dose: 14.0 mg/kg/injection, schedule: Q01DX001 (ip), vehicle: saline 120 % of control and 121 % of control | endpoint: mean survival time, dose: 14.0 mg/kg/injection, schedule: Q07DX003 (ip), vehicle: saline 117 % of control | endpoint: mean survival time, dose: 16.0 mg/kg/injection, schedule: Q01DX001 (ip), vehicle: saline 108 % of control | endpoint: mean survival time, dose: 16.0 mg/kg/injection, schedule: Q01DX001 (sc), vehicle: saline 98 % of control | endpoint: mean survival time, dose: 16.0 mg/kg/injection, schedule: Q01DX006 (iv), vehicle: saline 107 % of control | endpoint: mean survival time, dose: 16.0 mg/kg/injection, schedule: Q04DX003 (ip), vehicle: saline 112 % of control | endpoint: mean survival time, dose: 16.0 mg/kg/injection, schedule: Q04DX003 (oral), vehicle: saline 101 % of control and 104 % of control | endpoint: mean survival time, dose: 16.0 mg/kg/injection, schedule: Q## X002 (ip), vehicle: saline 103 % of control | endpoint: mean survival time, dose: 16.0 mg/kg/injection, schedule: Q## X003 (ip), vehicle: saline 116 % of control | endpoint: mean survival time, dose: 16.0 mg/kg/injection, schedule: Q## X003 (oral), vehicle: saline 111 % of control and 113 % of control | endpoint: mean survival time, dose: 16.0 mg/kg/injection, schedule: Q## X024 (oral), vehicle: saline 97 % of control and 104 % of control | endpoint: mean survival time, dose: 18.0 mg/kg/injection, schedule: Q01DX014 (ip), vehicle: saline 117 % of control | endpoint: mean survival time, dose: 27.0 mg/kg/injection, schedule: Q01DX001 (ip), vehicle: saline 104 % of control | endpoint: mean survival time, dose: 28.0 mg/kg/injection, schedule: Q01DX001 (ip), vehicle: saline 120 % of control | endpoint: mean survival time, dose: 28.0 mg/kg/injection, schedule: Q07DX003 (ip), vehicle: saline 120 % of control | endpoint: mean survival time, dose: 32.0 mg/kg/injection, schedule: Q01DX001 (ip), vehicle: saline 111 % of control | endpoint: mean survival time, dose: 32.0 mg/kg/injection, schedule: Q01DX001 (sc), vehicle: saline 105 % of control | endpoint: mean survival time, dose: 32.0 mg/kg/injection, schedule: Q01DX009 (ip), vehicle: saline 102 % of control and 119 % of control | endpoint: mean survival time, dose: 32.0 mg/kg/injection, schedule: Q01DX009 (sc), vehicle: saline 109 % of control | endpoint: mean survival time, dose: 32.0 mg/kg/injection, schedule: Q01DX Z (ip), vehicle: saline 95 % of control | endpoint: mean survival time, dose: 32.0 mg/kg/injection, schedule: Q01DX Z (sc), vehicle: saline 118 % of control | endpoint: mean survival time, dose: 32.0 mg/kg/injection, schedule: Q04DX003 (ip), vehicle: saline 115 % of control | endpoint: mean survival time, dose: 32.0 mg/kg/injection, schedule: Q04DX003 (oral), vehicle: saline 110 % of control | endpoint: mean survival time, dose: 32.0 mg/kg/injection, schedule: Q## X002 (ip), vehicle: saline 120 % of control | endpoint: mean survival time, dose: 32.0 mg/kg/injection, schedule: Q## X003 (ip), vehicle: saline 117 % of control | endpoint: mean survival time, dose: 32.0 mg/kg/injection, schedule: Q## X003 (oral), vehicle: saline 109 % of control and 120 % of control | endpoint: mean survival time, dose: 32.0 mg/kg/injection, schedule: Q## X024 (oral), vehicle: saline 121 % of control | endpoint: mean survival time, dose: 35.0 mg/kg/injection, schedule: Q02DX010 (ip), vehicle: other 95 % of control | endpoint: mean survival time, dose: 36.0 mg/kg/injection, schedule: Q02DX010 (ip), vehicle: other 110 % of control | endpoint: mean survival time, dose: 40.0 mg/kg/injection, schedule: Q01DX001 (ip), vehicle: saline 112 % of control | endpoint: mean survival time, dose: 40.0 mg/kg/injection, schedule: Q01DX Z (ip), vehicle: saline 99 % of control | endpoint: mean survival time, dose: 52.0 mg/kg/injection, schedule: Q02DX010 (ip), vehicle: carboxymethylcellulose (CMC) 107 % of control | endpoint: mean survival time, dose: 54.0 mg/kg/injection, schedule: Q02DX010 (ip), vehicle: other 106 % of control | endpoint: mean survival time, dose: 60.0 mg/kg/injection, schedule: Q01DX001 (ip), vehicle: saline 121 % of control | endpoint: mean survival time, dose: 64.0 mg/kg/injection, schedule: Q01DX001 (ip), vehicle: saline 110 % of control | endpoint: mean survival time, dose: 64.0 mg/kg/injection, schedule: Q01DX001 (oral), vehicle: saline 103 % of control | endpoint: mean survival time, dose: 64.0 mg/kg/injection, schedule: Q01DX001 (sc), vehicle: saline 110 % of control | endpoint: mean survival time, dose: 64.0 mg/kg/injection, schedule: Q04DX003 (ip), vehicle: saline 104 % of control and 112 % of control | endpoint: mean survival time, dose: 64.0 mg/kg/injection, schedule: Q04DX003 (oral), vehicle: saline 106 % of control and 120 % of control | endpoint: mean survival time, dose: 64.0 mg/kg/injection, schedule: Q## X002 (ip), vehicle: saline 118 % of control | endpoint: mean survival time, dose: 64.0 mg/kg/injection, schedule: Q## X003 (oral), vehicle: saline 117 % of control and 119 % of control | endpoint: mean survival time, dose: 72.0 mg/kg/injection, schedule: Q## X032 (ip), vehicle: saline 115 % of control and 116 % of control | endpoint: mean survival time, dose: 80.0 mg/kg/injection, schedule: Q04DX002 (ip), vehicle: saline 104 % of control | endpoint: mean survival time, dose: 96.0 mg/kg/injection, schedule: Q03DX006 (ip), vehicle: saline 102 % of control | endpoint: mean survival time, dose: 108.0 mg/kg/injection, schedule: Q## X032 (ip), vehicle: saline 101 % of control | endpoint: mean survival time, dose: 112.0 mg/kg/injection, schedule: Q01DX001 (ip), vehicle: saline 114 % of control | endpoint: mean survival time, dose: 128.0 mg/kg/injection, schedule: Q01DX001 (sc), vehicle: saline 105 % of control | endpoint: mean survival time, dose: 128.0 mg/kg/injection, schedule: Q04DX003 (oral), vehicle: saline 110 % of control | endpoint: mean survival time, dose: 128.0 mg/kg/injection, schedule: Q## X024 (ip), vehicle: saline 112 % of control | endpoint: median survival time, dose: 0.25 mg/kg/injection, schedule: Q03HX024 (ip), vehicle: water 105 % of control | endpoint: median survival time, dose: 2.0 mg/kg/injection, schedule: Q01DX009 (ip), vehicle: water 120 % of control
